The values below come from patent US12577248B2, “Substituted [1,2,4]triazolo[1,5-a]pyrazines as spleen tyrosine kinase inhibitors” (NANJING RUIJIE PHARMA CO., LTD., priority 2020, dated 2026).

In general, IC50 refers to the concentration needed to halve the response being measured.

The assay concerns the target SYK kinase (Homo sapiens, UniProt P43405). The assay is described as follows: SYK kinase assay (HTRF KinEASE-TK). It is filed as biochemical. The note with it: class symbols, read-out: Syk inhibition IC50. As for the experimental part:
A homogeneous time-resolved fluorescence (HTRF) assay was performed to assess the potential inhibitory effect of compounds on SYK kinase. The HTRF KinEASE-TK kit (Cisbio) was used. During the step, kinase will phosphorylate the substrate, and the resulting fluorescence signal is proportional to the phosphorylation level. The assay was performed in the following steps: First, the testing compounds were diluted 1:3 in succession in DMSO. The 1× kinase buffer contained 1 volume of 5× enzymatic buffer with 4 volumes of distilled water, 5 mM MgCl2, 1 mM MnCl2, and 1 mM DTT. The assays were assembled in 384 well plates (784075, Greiner) where 10 nl of compound solutions were added into each well, and the plates were centrifuged at 1000 g for 1 min. Then, 5 μl of 2×SYK in 1× kinase buffer were added to each well. The plates were centrifuged at 1000 g for 30 s and then incubated at room temperature for 10 min. The reaction was initiated by adding […] of premixed 2×TK-substrate-biotin and ATP mixture in 1× kinase buffer to the assay plates. The plates were centrifuged at 1000 g for 30 s and incubated at room temperature for 30 min. Phosphorylation was detected by adding 5 μl of 4×Sa-XL 665 in HTRF detection buffer into each well of the assay plates. The plates were centrifuged plates at 1000 g for 30 sec, and then incubated at room temperature for 1 h. Finally, the plates were read on an Envision 2104 plate reader (PerkinElmer) and the fluorescence signal was measured at 615 nm (Cryptate) and 665 nm (XL665).
A ratio (665/615 nm) was calculated for each well. The inhibition ratio was calculated as follow: […]
IC50 was calculated by fitting % Inhibition values and log of compound concentrations to nonlinear regression (dose response−variable slope) with GraphPad 6.0.

With `COc1cc(Nc2nc(-c3ccc4cn[nH]c4c3)cn3ncnc23)cc(OC)c1OC` [I4, 6-(1H-indazol-6-yl)-N-(3,4,5-trimethoxyphenyl)-[1,2,4]triazolo[1,5-a]pyrazin-8-amine], the IC50 is 50 to 500 nM.

`NC(=O)c1ccc(-c2cn3ncnc3c(Nc3ccc(N4CCOCC4)cc3)n2)cc1` [I5, 4-(8-((4-morpholinophenyl)amino)-[1,2,4]triazolo[1,5-a]pyrazin-6-yl)benzamide]: the IC50 lay within 50 to 500 nM.

As to `NC(=O)c1cccc(-c2cn3ncnc3c(Nc3ccc(N4CCOCC4)cc3)n2)c1` [I6, 3-(8-((4-morpholinophenyl)amino)-[1,2,4]triazolo[1,5-a]pyrazin-6-yl)benzamide], the IC50 lay in the range of 50 to 500 nM.

With `COc1cc(Nc2nc(-c3ccc4cn[nH]c4c3)cn3ncnc23)ccc1N1CCN(CC(F)(F)F)CC1` [I8, 6-(1H-indazol-6-yl)-N-(3-methoxy-4-(4-(2,2,2-trifluoroethyl)piperazin-1-yl)phenyl)-[1,2,4]triazolo[1,5-a]pyrazin-8-amine], the IC50 was no more than 50 nM.

With `CN1CCN(c2ccc(Nc3nc(-c4ccc5cn[nH]c5c4)cn4ncnc34)cc2)CC1` [I11, 6-(1H-indazol-6-yl)-N-(4-(4-methylpiperazin-1-yl)phenyl)-[1,2,4]triazolo[1,5-a]pyrazin-8-amine], the IC50 is no more than 50 nM.

On to `CCS(=O)(=O)N1CCN(c2ccc(Nc3nc(-c4ccc5cn[nH]c5c4)cn4ncnc34)cc2OC)CC1` [I13, N-(4-(4-(ethylsulfonyl)piperazin-1-yl)-3-methoxyphenyl)-6-(1H-indazol-6-yl)-[1,2,4]triazolo[1,5-a]pyrazin-8-amine], for which the IC50 is no more than 50 nM.

In the case of `CCS(=O)(=O)N1CCN(c2ccc(Nc3nc(-c4ccc5cn[nH]c5c4)cn4ncnc34)cc2)CC1` [I14, N-(4-(4-(ethylsulfonyl)piperazin-1-yl)phenyl)-6-(1H-indazol-6-yl)-[1,2,4]triazolo[1,5-a]pyrazin-8-amine], the IC50 is no more than 50 nM.

In the case of `COc1cc(Nc2nc(-c3ccc4cn[nH]c4c3)cn3ncnc23)ccc1N1CCN(CCO)CC1` [I15, 2-(4-(4-((6-(1H-indazol-6-yl)-[1,2,4]triazolo[1,5-a]pyrazin-8-yl)amino)-2-methoxyphenyl)piperazin-1-yl)ethan-1-ol], the IC50 was no more than 50 nM.

With `COc1cc(Nc2nc(-c3ccc4cn[nH]c4c3)cn3ncnc23)ccc1N1CCN(C2CC2)CC1` [I19, N-(4-(4-cyclopropylpiperazin-1-yl)-3-methoxyphenyl)-6-(1H-indazol-6-yl)-[1,2,4]triazolo[1,5-a]pyrazin-8-amine], the IC50 is no more than 50 nM.

For `FC(F)(F)Oc1cc(Nc2nc(-c3ccc4cn[nH]c4c3)cn3ncnc23)ccc1N1CCOCC1` [I20, 6-(1H-indazol-6-yl)-N-(4-morpholino-3-(trifluoromethoxy)phenyl)-[1,2,4]triazolo[1,5-a]pyrazin-8-amine], the IC50 was in the range of 50 to 500 nM.

With `CC1(C)Oc2cc(-c3cn4ncnc4c(Nc4ccc(N5CCOCC5)cc4)n3)ccc2NC1=O` [I27, 2,2-dimethyl-7-(8-((4-morpholinophenyl)amino)-[1,2,4]triazolo[1,5-a]pyrazin-6-yl)-2H-benzo[b][1,4]oxazin-3(4H)-one], the IC50 fell in the range of 50 to 500 nM.

As to `COc1cc(Nc2nc(-c3cnc4c(c3)OCC(=O)N4)cn3ncnc23)ccc1N1CCOCC1` [I30, 7-(8-((3-methoxy-4-morpholinophenyl)amino)-[1,2,4]triazolo[1,5-a]pyrazin-6-yl)-2H-pyrido[3,2-b][1,4]oxazin-3(4H)-one], the IC50 is 50 to 500 nM.

Turning to `O=C1COc2cc(-c3cn4ncnc4c(Nc4ccc(N5CCOCC5)cc4)n3)cnc2N1` [I31, 7-(8-((4-morpholinophenyl)amino)-[1,2,4]triazolo[1,5-a]pyrazin-6-yl)-2H-pyrido[3,2-b][1,4]oxazin-3(4H)-one], the IC50 was 50 to 500 nM.

In the case of `COc1cc(Nc2nc(-c3cnc4c(c3)OC(C)(C)C(=O)N4)cn3ncnc23)ccc1N1CCOCC1` [I32, 7-(8-((3-methoxy-4-morpholinophenyl)amino)-[1,2,4]triazolo[1,5-a]pyrazin-6-yl)-2,2-dimethyl-2H-pyrido[3,2-b][1,4]oxazin-3(4H)-one], the IC50 lay within 50 to 500 nM.

Take `CC1(C)Oc2cc(-c3cn4ncnc4c(Nc4ccc(N5CCOCC5)cc4)n3)cnc2NC1=O` [I33, 2,2-dimethyl-7-(8-((4-morpholinophenyl)amino)-[1,2,4]triazolo[1,5-a]pyrazin-6-yl)-2H-pyrido[3,2-b][1,4]oxazin-3(4H)-one]: the IC50 was 50 to 500 nM.

Regarding `COc1cc(Nc2nc(-c3cnc4c(c3)OCC(=O)N4)cn3ncnc23)cc(OC)c1OC` [I34, 7-(8-((3,4,5-trimethoxyphenyl)amino)-[1,2,4]triazolo[1,5-a]pyrazin-6-yl)-2H-pyrido[3,2-b][1,4]oxazin-3(4H)-one], the half-inhibitory concentration (IC50) is greater than 5000 nM.

As to `COc1cc(Nc2nc(-c3cnc4c(c3)OC(C)(C)C(=O)N4)cn3ncnc23)cc(OC)c1OC` [I35, 2,2-dimethyl-7-(8-((3,4,5-trimethoxyphenyl)amino)-[1,2,4]triazolo[1,5-a]pyrazin-6-yl)-2H-pyrido[3,2-b][1,4]oxazin-3(4H)-one], the IC50 is greater than 5000 nM.

Regarding `COc1ccc(Nc2nc(-c3cnc4c(c3)OCC(=O)N4)cn3ncnc23)cc1OC` [I36, 7-(8-((3,4-dimethoxyphenyl)amino)-[1,2,4]triazolo[1,5-a]pyrazin-6-yl)-2H-pyrido[3,2-b][1,4]oxazin-3(4H)-one], the IC50 fell in the range of 50 to 500 nM.

Regarding `COc1ccc(Nc2nc(-c3cnc4c(c3)OC(C)(C)C(=O)N4)cn3ncnc23)cc1OC` [I37, 7-(8-((3,4-dimethoxyphenyl)amino)-[1,2,4]triazolo[1,5-a]pyrazin-6-yl)-2,2-dimethyl-2H-pyrido[3,2-b][1,4]oxazin-3(4H)-one], the IC50 lay in the range of 50 to 500 nM.

On to `O=C1COc2cc(-c3cn4ncnc4c(Nc4ccc5c(c4)OC(F)(F)O5)n3)cnc2N1` [I38, 7-(8-((2,2-difluorobenzo[d][1,3]dioxol-5-yl)amino)-[1,2,4]triazolo[1,5-a]pyrazin-6-yl)-2H-pyrido[3,2-b][1,4]oxazin-3(4H)-one], for which the IC50 is greater than 5000 nM.

As to `CC1(C)Oc2cc(-c3cn4ncnc4c(Nc4ccc5c(c4)OC(F)(F)O5)n3)cnc2NC1=O` [I39, 7-(8-((2,2-difluorobenzo[d][1,3]dioxol-5-yl)amino)-[1,2,4]triazolo[1,5-a]pyrazin-6-yl)-2,2-dimethyl-2H-pyrido[3,2-b][1,4]oxazin-3(4H)-one], the IC50 is greater than 5000 nM.

For the compound `Fc1cc(Nc2nc(-c3ccc4cn[nH]c4c3)cn3cnnc23)ccc1N1CCOCC1` [I40, N-(3-fluoro-4-morpholinophenyl)-6-(1H-indazol-6-yl)-[1,2,4]triazolo[4,3-a]pyrazin-8-amine], the IC50 was greater than 5000 nM.

Take `Clc1cc(Nc2nc(-c3ccc4cn[nH]c4c3)cn3cnnc23)ccc1N1CCOCC1` [I41, N-(3-chloro-4-morpholinophenyl)-6-(1H-indazol-6-yl)-[1,2,4]triazolo[4,3-a]pyrazin-8-amine]: the IC50 is greater than 5000 nM.

With `Cc1cc(Nc2nc(-c3ccc4cn[nH]c4c3)cn3cnnc23)ccc1N1CCOCC1` [I42, 6-(1H-indazol-6-yl)-N-(3-methyl-4-morpholinophenyl)-[1,2,4]triazolo[4,3-a]pyrazin-8-amine], the IC50 is greater than 5000 nM.

Consider `c1cc(N2CCOCC2)ncc1Nc1nc(-c2ccc3cn[nH]c3c2)cn2cnnc12` [I43, 6-(1H-indazol-6-yl)-N-(6-morpholinopyridin-3-yl)-[1,2,4]triazolo[4,3-a]pyrazin-8-amine], for which the IC50 is greater than 5000 nM.
